{
  "source": "patent US20130177609A1",
  "about": "“Compositions and Methods for Increasing Bioavailability of Topical Ophthalmic Drugs” (priority 2008, published 2013)",
  "key": {"[1]": {"assay": "Solubility in water of compound having Formula III", "format": "physicochemical", "conditions": "pH 7, water, pH of about 7"}, "[2]": {"assay": "Example 1: ocular tissue pharmacokinetics after topical dose, increasing dose volume at constant drug concentration", "format": "in vivo, pigmented male rabbits (Dutch Belted)", "conditions": "for AUC(0-t) / DNAUC / Cmax / Tmax: topical ocular; for Cmax / Tmax: male, Dutch Belted, rabbit, topical or ocular", "procedure": "An aqueous suspension comprising 0.1 mg/mL of the compound having Formula III (BOL-303242-X), 100 mg/mL PEG 3350, and 10 mg/mL Tween® 80 was prepared substantially as disclosed above.\nThis study was carried out using a non-crossover design and a total of 84 naive pigmented male rabbits (Dutch Belted). Each rabbit was arbitrarily assigned to one of three dose groups.\nOn the day of dosing, each animal received a topical ocular dose of the suspension. Animals in Group 1 received a […] instillation, Group 2 received a 30-μL instillation and Group 3 received a 100-μL instillation. The target dose levels for these groups were 1, 3 and 10 μg/eye, respectively. The test composition was shipped to the test site as a ready-to-use suspension.\nAt predetermined time intervals after dosing, rabbits (four per collection time) were euthanized and the eyes enucleated and dissected. Samples of tear, conjunctiva, cornea, aqueous humor and iris/ciliary body were obtained from each animal and frozen until being shipped on dry ice to the analytical laboratory. Samples were collected at 0.0833, 0.25, 0.5, 1, 2, 4 and 6 hour after dosing. Concentrations of BOL-303242-X in ocular tissue samples were determined by LC/MS/MS. One or more samples of each tissue had concentrations that were below the lower limit of quantitation (“LLQ”). These samples were assigned a value of 0.5 times the LLQ for the purpose of calculating a mean concentration for pharmacokinetic (“PK”) analysis. In addition, the BOL-303242-X concentration measured in one tear sample collected at 6 hour was more than 100-fold higher than any other 6-hour sample for the same dose group. This value was considered to be an outlier, and was not included in any calculations.\nNon-compartmental methods were used for pharmacokinetic analysis of concentration versus time data (WinNonlin version 5.2). Due to the destructive sampling regimen employed in this study average composite data were used in the PK analysis."}, "[3]": {"conditions": "Conjunctiva, 10 μL of 0.1 mg/mL suspension (1 μg)"}, "[4]": {"conditions": "Conjunctiva, 30 μL of 0.1 mg/mL suspension (3 μg)"}, "[5]": {"conditions": "Conjunctiva, 100 μL of 0.1 mg/mL suspension (10 μg)"}, "[6]": {"conditions": "Cornea, 10 μL of 0.1 mg/mL suspension (1 μg)"}, "[7]": {"conditions": "Cornea, 30 μL of 0.1 mg/mL suspension (3 μg)"}, "[8]": {"conditions": "Cornea, 100 μL of 0.1 mg/mL suspension (10 μg)"}, "[9]": {"conditions": "Iris/Ciliary Body, 10 μL of 0.1 mg/mL suspension (1 μg)"}, "[10]": {"conditions": "Iris/Ciliary Body, 30 μL of 0.1 mg/mL suspension (3 μg)"}, "[11]": {"conditions": "Iris/Ciliary Body, 100 μL of 0.1 mg/mL suspension (10 μg)"}, "[12]": {"conditions": "Tear, 10 μL of 0.1 mg/mL suspension (1 μg)"}, "[13]": {"conditions": "Tear, 30 μL of 0.1 mg/mL suspension (3 μg)"}, "[14]": {"conditions": "Tear, 100 μL of 0.1 mg/mL suspension (10 μg)"}, "[15]": {"conditions": "1 ug, Conjunctiva, 10 μL of 0.1 mg/mL suspension (1 μg)"}, "[16]": {"conditions": "1 ug, Cornea, 10 μL of 0.1 mg/mL suspension (1 μg)"}, "[17]": {"conditions": "1 ug, Iris/Ciliary Body, 10 μL of 0.1 mg/mL suspension (1 μg)"}, "[18]": {"conditions": "1 ug, Tear, 10 μL of 0.1 mg/mL suspension (1 μg)"}, "[19]": {"conditions": "3 ug, Conjunctiva, 30 μL of 0.1 mg/mL suspension (3 μg)"}, "[20]": {"conditions": "3 ug, Cornea, 30 μL of 0.1 mg/mL suspension (3 μg)"}, "[21]": {"conditions": "3 ug, Iris/Ciliary Body, 30 μL of 0.1 mg/mL suspension (3 μg)"}, "[22]": {"conditions": "3 ug, Tear, 30 μL of 0.1 mg/mL suspension (3 μg)"}, "[23]": {"conditions": "10 ug, Conjunctiva, 100 μL of 0.1 mg/mL suspension (10 μg)"}, "[24]": {"conditions": "10 ug, Cornea, 100 μL of 0.1 mg/mL suspension (10 μg)"}, "[25]": {"conditions": "10 ug, Iris/Ciliary Body, 100 μL of 0.1 mg/mL suspension (10 μg)"}, "[26]": {"conditions": "10 ug, Tear, 100 μL of 0.1 mg/mL suspension (10 μg)"}},
  "data": [
    {"smiles": "Cc1ccc2c(NCC(O)(CC(C)(C)c3cc(F)cc4c3OCC4)C(F)(F)F)cccc2n1", "note": "(centres unmarked) [BOL-303242-X]", "values": [
      {"measurement": "solubility", "setting": "[1]", "value": "~0.2", "unit": "µg/mL"},
      {"measurement": "AUC(0-t)", "setting": "[2]; [3]", "value": 245, "unit": "ng·h/g"},
      {"measurement": "DNAUC", "setting": "[2]; [3]", "value": 245, "unit": "ng*hr/g ÷ μg dose"},
      {"measurement": "AUC(0-t)", "setting": "[2]; [4]", "value": 487, "unit": "ng·h/g"},
      {"measurement": "DNAUC", "setting": "[2]; [4]", "value": 162, "unit": "ng*hr/g ÷ μg dose"},
      {"measurement": "AUC(0-t)", "setting": "[2]; [5]", "value": 741, "unit": "ng·h/g"},
      {"measurement": "DNAUC", "setting": "[2]; [5]", "value": 74.1, "unit": "ng*hr/g ÷ μg dose"},
      {"measurement": "AUC(0-t)", "setting": "[2]; [6]", "value": 270, "unit": "ng·h/g"},
      {"measurement": "DNAUC", "setting": "[2]; [6]", "value": 270, "unit": "ng*hr/g ÷ μg dose"},
      {"measurement": "AUC(0-t)", "setting": "[2]; [7]", "value": 634, "unit": "ng·h/g"},
      {"measurement": "DNAUC", "setting": "[2]; [7]", "value": 211, "unit": "ng*hr/g ÷ μg dose"},
      {"measurement": "AUC(0-t)", "setting": "[2]; [8]", "value": 955, "unit": "ng·h/g"},
      {"measurement": "DNAUC", "setting": "[2]; [8]", "value": 95.5, "unit": "ng*hr/g ÷ μg dose"},
      {"measurement": "AUC(0-t)", "setting": "[2]; [9]", "value": 32.0, "unit": "ng·h/g"},
      {"measurement": "DNAUC", "setting": "[2]; [9]", "value": 32.0, "unit": "ng*hr/g ÷ μg dose"},
      {"measurement": "AUC(0-t)", "setting": "[2]; [10]", "value": 33.8, "unit": "ng·h/g"},
      {"measurement": "DNAUC", "setting": "[2]; [10]", "value": 11.3, "unit": "ng*hr/g ÷ μg dose"},
      {"measurement": "AUC(0-t)", "setting": "[2]; [11]", "value": 30.5, "unit": "ng·h/g"},
      {"measurement": "DNAUC", "setting": "[2]; [11]", "value": 3.05, "unit": "ng*hr/g ÷ μg dose"},
      {"measurement": "AUC(0-t)", "setting": "[2]; [12]", "value": 8870, "unit": "ng·h/g"},
      {"measurement": "DNAUC", "setting": "[2]; [12]", "value": 8870, "unit": "ng*hr/g ÷ μg dose"},
      {"measurement": "AUC(0-t)", "setting": "[2]; [13]", "value": 12600, "unit": "ng·h/g"},
      {"measurement": "DNAUC", "setting": "[2]; [13]", "value": 4200, "unit": "ng*hr/g ÷ μg dose"},
      {"measurement": "AUC(0-t)", "setting": "[2]; [14]", "value": 25600, "unit": "ng·h/g"},
      {"measurement": "DNAUC", "setting": "[2]; [14]", "value": 2560, "unit": "ng*hr/g ÷ μg dose"},
      {"measurement": "Cmax", "setting": "[2]; 1 ug, Aqueous Humor, 10 μL of 0.1 mg/mL suspension (1 μg)", "value": "< 1", "unit": "ng/mL"},
      {"measurement": "Cmax", "setting": "[2]; [15]", "value": "292 ± 137", "unit": "ng/g"},
      {"measurement": "Tmax", "setting": "[2]; [15]", "value": 4.98, "unit": "min"},
      {"measurement": "Cmax", "setting": "[2]; [16]", "value": "288 ± 116", "unit": "ng/g"},
      {"measurement": "Tmax", "setting": "[2]; [16]", "value": 15, "unit": "min"},
      {"measurement": "Cmax", "setting": "[2]; [17]", "value": "19.6 ± 29.8", "unit": "ng/g"},
      {"measurement": "Tmax", "setting": "[2]; [17]", "value": 60, "unit": "min"},
      {"measurement": "Cmax", "setting": "[2]; [18]", "value": "16300 ± 7000", "unit": "ng/g"},
      {"measurement": "Tmax", "setting": "[2]; [18]", "value": 4.98, "unit": "min"},
      {"measurement": "Cmax", "setting": "[2]; 3 ug, Aqueous Humor, 30 μL of 0.1 mg/mL suspension (3 μg)", "value": "< 1", "unit": "ng/mL"},
      {"measurement": "Cmax", "setting": "[2]; [19]", "value": "684 ± 446", "unit": "ng/g"},
      {"measurement": "Tmax", "setting": "[2]; [19]", "value": 4.98, "unit": "min"},
      {"measurement": "Cmax", "setting": "[2]; [20]", "value": "716 ± 234", "unit": "ng/g"},
      {"measurement": "Tmax", "setting": "[2]; [20]", "value": 4.98, "unit": "min"},
      {"measurement": "Cmax", "setting": "[2]; [21]", "value": "13.1 ± 19", "unit": "ng/g"},
      {"measurement": "Tmax", "setting": "[2]; [21]", "value": 120, "unit": "min"},
      {"measurement": "Cmax", "setting": "[2]; [22]", "value": "28100 ± 11300", "unit": "ng/g"},
      {"measurement": "Tmax", "setting": "[2]; [22]", "value": 15, "unit": "min"},
      {"measurement": "Cmax", "setting": "[2]; 10 ug, Aqueous Humor, 100 μL of 0.1 mg/mL suspension (10 μg)", "value": "< 1", "unit": "ng/mL"},
      {"measurement": "Cmax", "setting": "[2]; [23]", "value": "1050 ± 531", "unit": "ng/g"},
      {"measurement": "Tmax", "setting": "[2]; [23]", "value": 4.98, "unit": "min"},
      {"measurement": "Cmax", "setting": "[2]; [24]", "value": "955 ± 619", "unit": "ng/g"},
      {"measurement": "Tmax", "setting": "[2]; [24]", "value": 4.98, "unit": "min"},
      {"measurement": "Cmax", "setting": "[2]; [25]", "value": "11.3 ± 8.05", "unit": "ng/g"},
      {"measurement": "Tmax", "setting": "[2]; [25]", "value": 60, "unit": "min"},
      {"measurement": "Cmax", "setting": "[2]; [26]", "value": "36700 ± 21400", "unit": "ng/g"},
      {"measurement": "Tmax", "setting": "[2]; [26]", "value": 15, "unit": "min"},
      {"measurement": "increase in exposure with increasing instillation volume", "setting": "[2]; tear, cornea and conjunctiva, 10, 30, 100 μL of 0.1 mg/mL", "value": "less than proportional to the administered dose/volume"}
    ]}
  ]
}
